From ChEMBL document CHEMBL3045802, “Synthesis and in vitro antitumor activity of new quinoline, pyrimido[4,5-b]quinoline, [1,2,3]triazino[4,5-b]quinoline, and [1,2,4]triazolo[2,3:3,4]pyrimido[6,5-b]quinoline analogs” (2013)

Tests used:
Format in all cases: functional
[1] = tested on: MDA-MB-435; test: Cytotoxicity against Homo sapiens (human) MDA-MB-435 cells assessed as growth inhibition at 10 uM after 48 hr by coulter counter analysis; conditions: MDA-MB-435, 48 h, read-out: GI
[2] = tested on: SNB-75; test: Cytotoxicity against Homo sapiens (human) SNB75 cells assessed as growth inhibition at 10 uM after 48 hr by coulter counter analysis; conditions: SNB-75, 48 h, read-out: GI
[3] = tested on: SF-539; test: Cytotoxicity against Homo sapiens (human) SF539 cells assessed as growth inhibition at 10 uM after 48 hr by coulter counter analysis; conditions: SF-539, 48 h, read-out: GI
[4] = tested on: SF-295; test: Cytotoxicity against Homo sapiens (human) SF295 cells assessed as growth inhibition at 10 uM after 48 hr by coulter counter analysis; conditions: SF-295, 48 h, read-out: GI
[5] = tested on: OVCAR-4; test: Cytotoxicity against Homo sapiens (human) OVCAR4 cells assessed as growth inhibition at 10 uM after 48 hr by coulter counter analysis; conditions: OVCAR-4, 48 h, read-out: GI
[6] = tested on: OVCAR-3; test: Cytotoxicity against Homo sapiens (human) OVCAR3 cells assessed as growth inhibition at 10 uM after 48 hr by coulter counter analysis; conditions: OVCAR-3, 48 h, read-out: GI
[7] = tested on: UACC-257; test: Cytotoxicity against Homo sapiens (human) UACC257 cells assessed as growth inhibition at 10 uM after 48 hr by coulter counter analysis; conditions: UACC-257, 48 h, read-out: GI
[8] = tested on: SK-MEL-5; test: Cytotoxicity against Homo sapiens (human) SK-MEL-5 cells assessed as growth inhibition at 10 uM after 48 hr by coulter counter analysis; conditions: SK-MEL-5, 48 h, read-out: GI
[9] = tested on: T47D; test: Cytotoxicity against Homo sapiens (human) T47D cells assessed as growth inhibition at 10 uM after 48 hr by coulter counter analysis; conditions: read-out: GI
[10] = tested on: Hs-578T; test: Cytotoxicity against Homo sapiens (human) Hs578T cells assessed as growth inhibition at 10 uM after 48 hr by coulter counter analysis; conditions: read-out: GI
[11] = tested on: MDA-MB-231; test: Cytotoxicity against Homo sapiens (human) MDA-MB-231 cells assessed as growth inhibition at 10 uM after 48 hr by coulter counter analysis; conditions: MDA-MB-231, 48 h, read-out: GI
[12] = tested on: RXF 393; test: Cytotoxicity against Homo sapiens (human) RXF393 cells assessed as growth inhibition at 10 uM after 48 hr by coulter counter analysis; conditions: RXF 393, 48 h, read-out: GI
[13] = tested on: CAKI-1; test: Cytotoxicity against Homo sapiens (human) Caki1 cells assessed as growth inhibition at 10 uM after 48 hr by coulter counter analysis; conditions: CAKI-1, 48 h, read-out: GI
[14] = tested on: A498; test: Cytotoxicity against Homo sapiens (human) A498 cells assessed as growth inhibition at 10 uM after 48 hr by coulter counter analysis; conditions: A498, 48 h, read-out: GI
[15] = tested on: SK-OV-3; test: Cytotoxicity against Homo sapiens (human) SKOV3 cells assessed as growth inhibition at 10 uM after 48 hr by coulter counter analysis; conditions: SK-OV-3, 48 h, read-out: GI
[16] = Cytotoxicity against Homo sapiens (human) NCI-ADR-RES cells assessed as growth inhibition at 10 uM after 48 hr by coulter counter analysis; conditions: read-out: GI
[17] = tested on: HL-60(TB); test: Cytotoxicity against Homo sapiens (human) HL-60(TB) cells assessed as growth inhibition at 10 uM after 48 hr by coulter counter analysis; conditions: HL-60, 48 h, read-out: GI
[18] = tested on: CCRF-CEM; test: Cytotoxicity against Homo sapiens (human) CCRF-CEM cells assessed as growth inhibition at 10 uM after 48 hr by coulter counter analysis; conditions: read-out: GI
[19] = tested on: KM12; test: Cytotoxicity against Homo sapiens (human) KM12 cells assessed as growth inhibition at 10 uM after 48 hr by coulter counter analysis; conditions: KM12, 48 h, read-out: GI
[20] = tested on: SW-620; test: Cytotoxicity against Homo sapiens (human) SW620 cells assessed as growth inhibition at 10 uM after 48 hr by coulter counter analysis; conditions: SW-620, 48 h, read-out: GI
[21] = tested on: HCC 2998; test: Cytotoxicity against Homo sapiens (human) HCC2998 cells assessed as growth inhibition at 10 uM after 48 hr by coulter counter analysis; conditions: HCC 2998, 48 h, read-out: GI
[22] = tested on: NCI-H226; test: Cytotoxicity against Homo sapiens (human) NCI-H226 cells assessed as growth inhibition at 10 uM after 48 hr by coulter counter analysis; conditions: NCI-H226, 48 h, read-out: GI
[23] = tested on: EKVX; test: Cytotoxicity against Homo sapiens (human) EKVX cells assessed as growth inhibition at 10 uM after 48 hr by coulter counter analysis; conditions: read-out: GI
[24] = tested on: UACC-62; test: Cytotoxicity against Homo sapiens (human) UACC62 cells assessed as growth inhibition at 10 uM after 48 hr by coulter counter analysis; conditions: UACC-62, 48 h, read-out: GI

Structure (SMILES) | inhibition of growth at 10 µM [1] [%] | inhibition of growth at 10 µM [2] [%] | inhibition of growth at 10 µM [3] [%] | inhibition of growth at 10 µM [4] [%] | inhibition of growth at 10 µM [5] [%] | inhibition of growth at 10 µM [6] [%] | inhibition of growth at 10 µM [7] [%] | inhibition of growth at 10 µM [8] [%] | inhibition of growth at 10 µM [9] [%] | inhibition of growth at 10 µM [10] [%] | inhibition of growth at 10 µM [11] [%] | inhibition of growth at 10 µM [12] [%] | inhibition of growth at 10 µM [13] [%] | inhibition of growth at 10 µM [14] [%] | inhibition of growth at 10 µM [15] [%] | inhibition of growth at 10 µM [16] [%] | inhibition of growth at 10 µM [17] [%] | inhibition of growth at 10 µM [18] [%] | inhibition of growth at 10 µM [19] [%] | inhibition of growth at 10 µM [20] [%] | also measured
O=c1[nH]nnc2c1C(c1ccc(Cl)cc1)C1=C(CCCC1)N2 (configuration not stated) | < 10 | < 10 | < 10 | < 10 | < 10 | < 10 | < 10 | 13 | 13.3 | < 10 | < 10 | < 10 | 16.1 | 28.3 | < 10 | < 10 | < 10 | < 10 | < 10 | < 10 | inhibition of growth at 10 µM [21]: < 10%; inhibition of growth at 10 µM [22]: 10.3%; inhibition of growth at 10 µM [23]: 10.9%
N#CCc1nc2c(c(=O)[nH]1)C(c1ccc(Cl)cc1)C1=C(CCCC1)N2 (configuration not stated) | < 10 | 20.4 | < 10 | < 10 | < 10 | < 10 | < 10 | < 10 | 14.1 | < 10 | < 10 | < 10 | < 10 | 13 | < 10 | < 10 | < 10 | < 10 | < 10 | < 10 | inhibition of growth at 10 µM [21]: < 10%; inhibition of growth at 10 µM [22]: < 10%; inhibition of growth at 10 µM [23]: 13%
CN(C)c1ccc(-c2nc3c(c(=O)[nH]2)C(c2ccc(Cl)cc2)C2=C(CCCC2)N3)cc1 (configuration not stated) | < 10 | 12 | < 10 | < 10 | < 10 | 11.1 | < 10 | < 10 | 17.6 | < 10 | 12 | < 10 | < 10 | < 10 | < 10 | < 10 | < 10 | < 10 | < 10 | < 10 | inhibition of growth at 10 µM [21]: < 10%; inhibition of growth at 10 µM [22]: < 10%; inhibition of growth at 10 µM [23]: < 10%
COc1ccc(-c2nc3c(c(=O)[nH]2)C(c2ccc(Cl)cc2)C2=C(CCCC2)N3)cc1OC (configuration not stated) | < 10 | 11.2 | < 10 | < 10 | < 10 | < 10 | < 10 | 13 | < 10 | < 10 | 12.6 | < 10 | < 10 | < 10 | < 10 | < 10 | < 10 | < 10 | < 10 | < 10 | inhibition of growth at 10 µM [21]: < 10%; inhibition of growth at 10 µM [22]: 11%; inhibition of growth at 10 µM [23]: < 10%
COc1ccc(C2C3=C(CCCC3)Nc3nc(-c4ccc(N(C)C)cc4)[nH]c(=O)c32)cc1OC (configuration not stated) | < 10 | < 10 | < 10 | < 10 | < 10 | < 10 | < 10 | < 10 | 14.9 | < 10 | < 10 | < 10 | 10.5 | 21.7 | < 10 | < 10 | < 10 | < 10 | < 10 | < 10 | inhibition of growth at 10 µM [21]: < 10%; inhibition of growth at 10 µM [22]: 13.6%; inhibition of growth at 10 µM [23]: < 10%
Oc1ccc(-c2nc3c4c(ncn3n2)NC2=C(CCCC2)C4c2ccc(Cl)cc2)cc1 (configuration not stated) | < 10 | 20.5 | < 10 | < 10 | < 10 | < 10 | < 10 | < 10 | 15.8 | 14.1 | 20.5 | < 10 | 24.6 | 25.1 | < 10 | < 10 | 13.5 | 13.2 | < 10 | < 10 | inhibition of growth at 10 µM [24]: 17.4%; inhibition of growth at 10 µM [21]: < 10%; inhibition of growth at 10 µM [22]: < 10%; inhibition of growth at 10 µM [23]: < 10%
COc1ccc(C2C3=C(CCCC3)Nc3ncn4nc(-c5ccccc5)nc4c32)cc1OC (configuration not stated) | < 10 | < 10 | < 10 | 29.6 | < 10 | < 10 | < 10 | < 10 | 26.2 | < 10 | 12.6 | 19.9 | 13.1 | 53.6 | < 10 | < 10 | < 10 | < 10 | < 10 | < 10 | inhibition of growth at 10 µM [24]: < 10%; inhibition of growth at 10 µM [21]: < 10%; inhibition of growth at 10 µM [22]: 19.6%; inhibition of growth at 10 µM [23]: 11%
COc1ccc(C2C3=C(CCCC3)Nc3ncn4nc(-c5ccc(O)cc5)nc4c32)cc1OC (configuration not stated) | < 10 | 19.1 | < 10 | < 10 | < 10 | < 10 | < 10 | 23.2 | 18.8 | < 10 | 12.8 | < 10 | < 10 | < 10 | < 10 | < 10 | < 10 | < 10 | < 10 | < 10 | inhibition of growth at 10 µM [24]: < 10%; inhibition of growth at 10 µM [21]: < 10%; inhibition of growth at 10 µM [22]: 15.3%; inhibition of growth at 10 µM [23]: < 10%
